From US20120021011A1, “ANTI-INFLAMMATORY PHARMACEUTICAL COMPOSITION COMPRISING EXTRACTS FROM BROUSSONETIA PAPYRIFERA AND LONICERA JAPONICA” (Knu-Industry Cooperation Foundation, priority 2009, published 2012)

Experiments:
[1] = system: acetic acid-induced writhing; experiment: Acetic acid-induced writhing test on mice; type: in vivo, mouse; conditions: for Numbers of writhings: mean ± SD
Description: In order to measure an antinociceptive activity, 1% acetic acid (100 μl) was intraperitoneally injected to a mouse. 10 minutes after the injection of the acetic acid, the number of writhings was counted for 10 minutes. Before the injection of the acetic acid, a test material dissolved in a mixture including DMSO and water at a ratio of 1:1 was orally administered (0.1 ml/mouse).
Each group consisted of 6 mice. Measurement values were represented by arithmetic mean±SD (a of Table 3). b of Table 3 indicates an inhibitory activity % compared to the control group treated with the acetic acid. * indicates a significant difference of P<0.05 compared to the acetic acid-treated control group.

[2] = system: AA-induced mouse ear edema; experiment: Arachidonic acid (AA)-induced mouse ear edema; type: in vivo; conditions: 20 mg/kg oral
Description: AA-induced mouse ear edema assay was used to identify an anti-inflammatory activity in vivo in anti-inflammatory animal model. According to a method disclosed in Kim et al. (1993), 2% AA acetone solution was applied to an ear of a mouse (20 μl/ear), and after one hour, a thickness of the ear was measured using a dial thickness gauge (Mitutoyo, Japan). One hour before the AA treatment, a test material dissolved in a mixture including DMSO and water at a mixture ratio of 1:1 was orally administered to the mouse (0.1 ml/mouse).

[3] = system: CGN-induced mouse paw edema; experiment: λ-Carrageenan (CGN)-induced mouse paw edema; type: in vivo; conditions: for Paw volume increased: 5 h after CGN, mean ± SD
Description: Mouse CGN-induced paw edema assay was performed to measure an anti-inflammatory activity according to a slightly modified method disclosed in Winter et al. (1962). […] If the volume was greater than that before the addition of CGN, it was deemed that edema developed. The test material was dissolved in a mixture including DMSO and water at a mixture ratio of 1:1 and then was orally administered. A volume of a negative control group which was not treated with CGN was 0.149±0.025 ml.

5-LOX = target: T1, 5-LOX (Rattus norvegicus, UniProt P12527); experiment: 5-LOX-mediated cysteinyl leukotriene (LTC4/D4/E4) production in A23187-treated RBL-1 cells; type: cell-based; conditions: 1 nM, read-out: 5-LOX inhibitory activity
T1 construct: RBL-1 cells obtained from American Type Culture Collection; endogenous in cells; host or cells: RBL-1 (rat basophilic leukemia) cells, ATCC
T1 sequence (P12527 1-673): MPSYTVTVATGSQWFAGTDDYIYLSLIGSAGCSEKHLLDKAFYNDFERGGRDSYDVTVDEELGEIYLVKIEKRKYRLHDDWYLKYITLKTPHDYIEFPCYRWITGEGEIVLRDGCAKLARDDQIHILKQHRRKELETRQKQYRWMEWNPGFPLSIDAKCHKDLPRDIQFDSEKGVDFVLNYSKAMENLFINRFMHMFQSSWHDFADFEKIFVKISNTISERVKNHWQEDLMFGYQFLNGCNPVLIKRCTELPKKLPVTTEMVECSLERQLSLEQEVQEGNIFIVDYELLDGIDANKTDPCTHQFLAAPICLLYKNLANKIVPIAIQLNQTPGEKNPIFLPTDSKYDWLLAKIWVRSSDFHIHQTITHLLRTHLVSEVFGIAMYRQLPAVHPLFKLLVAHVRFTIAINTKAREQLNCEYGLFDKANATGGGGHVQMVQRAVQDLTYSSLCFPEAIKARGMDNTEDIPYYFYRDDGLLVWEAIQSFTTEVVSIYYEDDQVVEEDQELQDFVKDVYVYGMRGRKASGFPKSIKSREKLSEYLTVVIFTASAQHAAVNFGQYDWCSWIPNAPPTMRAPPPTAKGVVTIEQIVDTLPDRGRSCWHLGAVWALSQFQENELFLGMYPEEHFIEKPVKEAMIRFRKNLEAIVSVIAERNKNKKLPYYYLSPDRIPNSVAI
Description: The cells were placed on 96-well plates for 2 hours, and incubated in advance with a test material for 10 minutes. The test material was dissolved in DMSO and diluted with serum-free DMEM at an appropriate concentration. The final concentration of DMSO was adjusted to be 0.1% (v/v). […] A medium used was collected and a concentration of cysteinyl leukotrienes (LTC4/D4/E4) produced by 5-LOX was measured using an ELISA kit (Cayman Chem.) according to a method recommended by the manufacturer.
It is known that when RBL-1 cells are activated by A23187 (calcium ionophore), a great amount of cysteinyl-LTs is generated by 5-LOX.

In the case of CC(=O)Oc1ccccc1C(=O)O [Aspirin, aspirin], the “inhibitory activity % compared to the acetic acid-treated control group (writhings)” value ([1]; Exp. 1, 100 mg/kg oral) is reported as 60.9%, the Numbers of writhings ([1]; Exp. 1, 100 mg/kg oral) is reported as 5.7 ± 3.8 and the “inhibitory activity % compared to the acetic acid-treated control group (writhings)” value ([1]; Exp. 2, 100 mg/kg oral) is reported as 46.1%. For the same compound, the Numbers of writhings ([1]; Exp. 2, 100 mg/kg oral) was 9.6 ± 3.2.
For COc1ccc2c(c1)c(CC(=O)O)c(C)n2C(=O)c1ccc(Cl)cc1 [Indomethacin, indomethacin], the “inhibitory activity % compared to the AA-treated control group (ear edema)” value [2] was 70%, the Ear thickness increased ([2]; 1 h after AA, mean ± SD) was 0.021 ± 0.013 mm and the “inhibitory activity % compared to the CGN-treated control group (paw edema)” value (“inhibitory activity % … (paw edema)” below) ([3]; 20 mg/kg oral) was 23.7%. For the same compound, the Paw volume increased ([3]; 20 mg/kg oral) was 0.116 ± 0.039 mL, the “inhibitory activity % … (paw edema)” value ([3]; 100 mg/kg oral) was 44.7% and the Paw volume increased ([3]; 100 mg/kg oral) was 0.084 ± 0.019 mL.
CC(Cc1ccc(O)c(O)c1)C(C)Cc1ccc(O)c(O)c1 (stereo not shown) [NDGA, nordihydroguaiaretic acid] gave an inhibition at 0.001 µM (5-LOX) of 99%.
For C[C@]12C=CC(=O)C=C1CC[C@@H]1[C@@H]2[C@@H](O)C[C@@]2(C)[C@H]1CC[C@]2(O)C(=O)CO [Prednisolone, prednisolone], the “inhibitory activity % … (paw edema)” value ([3]; 20 mg/kg oral) was 50.0% and the Paw volume increased ([3]; 20 mg/kg oral) was 0.076 ± 0.011 mL.
